Holding throughout (format): physicochemical
Data set [1] can be described thus: Storage stability at different relative humidities (XRPD). The following applies: for XRPD analysis results: 7 days. The protocol: (§1) A sample is powdered in a mortar and pestle and applied directly on a silicon plate holder. The X-ray powder diffraction pattern was measured with Philips X'Pert PRO X-ray powder diffractometer, equipped with Cu irradiation source=1.54184 Å (Ångström), X'Celerator (2.022° 2θ) detector. Scanning parameters: angle range: 3-40 deg., step size 0.0167, time per step 37 s, continuous scan.
Samples of Rucaparib tosylate form X (about 200 mg each) were subjected to conditions of different relative humidities at ambient temperature. XRPD analysis was performed on the samples after 7 days.
A sample of Rucaparib tosylate form X was subjected to 100% relative humidity at 25° C.

Data set [2] in a line: Grinding experiments (XRPD). As to conditions: for XRPD analysis results: 3 minutes. The procedure:
as §1
Samples of Rucaparib tosylate form X were subjected to strong grinding, and to solvent drop grinding in water, ethanol (96%) and 2-propanol. Grinding was carried out on the samples alone, or in the presence of ethanol, water and 2-propanol. In these experiments, about 20-30 mg of the sample were placed in a mortar and ground with a pestle for 3 minutes. The solvent, when used, as added to the crystalline material before grinding, in a volume of 10 microlitres.

Data set [3] in a line: Exposure to solvent vapour (XRPD). The following applies: 25° C., 7 days. The protocol: as §1
Samples of Rucaparib tosylate form X (20-40 mg) were put in small vials and exposed to solvent vapours (2.5 ml each of ethanol, 96%, water and 2-propanol) at 25° C.

A short description of the next data set: Thermal stability (XRPD). As to conditions: Heating 100° C., 30 minutes. The procedure:
as §1
A sample of Rucaparib tosylate form X was subjected to heating up to 100° C. for 30 minutes.

Data set [4] can be described thus: Stability to compression (XRPD). The following applies: for XRPD analysis results: after 1-5 minutes. The protocol: as §1
Samples of Rucaparib tosylate form X were subjected to pressures of 1000 kg and 2000 kg. XRPD analysis was performed on the samples after 1-5 minutes.

“Also recorded” adds a separate entry of the source.

Regarding “Rucaparib Tosylate [Rucaparib tosylate form X]”, the XRPD analysis results in data set [1] (20% relative humidity, ambient temperature, triplicate) was “Form X”; in data set [1] (40% relative humidity, ambient temperature, triplicate), “Form X”; in data set [1] (60% relative humidity, ambient temperature, triplicate), “Form X”; in data set [1] (80% relative humidity, ambient temperature, triplicate), “Form X”; in data set [1] (100% relative humidity, ambient temperature, triplicate), “Form X”; in data set [2] (Solvent-drop grinding (2-propanol), 10 microlitres), “Form X”. Moreover, the XRPD analysis results is reported as “Form X” in data set [2] (Solvent-drop grinding (ethanol), 10 microlitres); “Form X” in data set [2] (Solvent-drop grinding (water), 10 microlitres); “Form X” in data set [2] (Strong grinding); “Form X” in data set [3] (2-propanol vapour); “Form X” in data set [3] (Ethanol, 96% vapour); “Form X” in data set [3] (Water vapour). The XRPD analysis results in data set [4] (Pressure 1000 kg) and in data set [4] (Pressure 2000 kg) was “No change” throughout. Besides, the “Stability after exposure to high and low relative humidity” value in data set [1] (20-100% relative humidity, ambient temperature, at least 7 days) is on record as “stable”. For the same substance, the “XRPD analysis, polymorphic change” value in data set [1] (100% relative humidity, 25° C., 30 days, triplicate) was “no polymorphic change”. Further, the “XRPD analysis after the grinding experiment” value in data set [2] (all grinding conditions: alone or with ethanol, water, 2-propanol) was “no change in the starting material”. Moreover, the “Result (XRPD analysis)” value in “Thermal stability (XRPD)” is recorded as “no change in the starting material; also recorded: Form X”. Moreover, in data set [4] (pressures of 1000 kg and 2000 kg), the “Stability under high pressure conditions” value is “stable”.

The record behind these values is patent US20250223295A1, “SOLID STATE FORMS OF RUCAPARIB TOSYLATE” (ASSIA CHEMICAL INDUSTRIES LTD., priority 2022, published 2025).
